In PubChem BioAssay AID179 (DTP/NCI, 2004):
Values joined by “and” are separate entries in the source; they are usually repeats but may differ in a detail not shown here. Equal entries are not always repeated. Active and inactive are the calls of the source.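 The calls were made as follows: active = compounds giving half or more protection of infected cells from virus-caused growth loss, again on retest; inactive = the rest.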 Where a SMILES comes first, the peptide text is derived from it. The star is where a group is joined. Cbz = O=C(OCc1ccccc1)*

Tested on: CEM cells HIV-1 protection, formazan growth assay
Assay: NCI AIDS Antiviral Assay
Conditions: for IC50: measured here: growth of uninfected CEM cells
Summary of the method: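 Soluble formazan readout of cell growth; CEM cells ± HIV-1; 5 drug concs. ≥50% protection → retest; ≥50% again = moderately active; reproducible 100% = confirmed active.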

Row | Structure (SMILES) | EC50 [µM] | IC50 | outcome
1 | CCOC(=O)C(NC(C)=O)(Nc1ccc(S(N)(=O)=O)cc1)C(F)(F)F (stereo not given) | > 200 | > 200 µM | –
2 | CCCn1c2c(c3ccccc3c1=O)C(=O)c1ccccc1-2 | > 18.2 | > 18.2 µM | –
3 | Nc1cc(Cl)ccc1N1C(=O)C=CC1=O | – | – | inactive
4 | C[N+]1(C)C/C(=C/c2ccc(F)cc2)C(=O)/C(=C\c2ccc(F)cc2)C1 | > 537 | 97.7 µM | –
5 | COC(=O)C1=C(CS(=O)c2ccc([N+](=O)[O-])cc2[N+](=O)[O-])C2C=CC1C2 (stereo not given) | – | – | inactive
6 | CCOC(=O)/C(F)=C/c1cccc([N+](=O)[O-])c1 | > 151 | > 151 µM | –
7 | O=P(O)(OCC(O)O)OCC(O)O | – | – | inactive
8 | CC[C@@]1(O)C[C@H](OC2CC(N(C)C)C(OC3CC(O)C(OC4CCC(=O)C(C)O4)C(C)O3)C(C)O2)c2c(cc3c(c2O)C(=O)c2c(O)ccc(O)c2C3=O)[C@H]1C(=O)OC (stereo not given in full) | > 6.31 | 0.0055 µM and 0.0158 µM | –
9 | O=C1C2C3C=C4c5ccccc5N(c5ccccc5)C4(C2C(=O)N1c1ccc(Cl)cc1)[C@H]1C(=O)N(c2ccc(Cl)cc2)C(=O)[C@@H]31 (stereo not given in full) | > 3.16 | > 3.16 µM | –
10 | COc1ccc(/C=C/C(=N/NC(=O)N/N=C(/C=C/c2ccc(OC)cc2)C(C)(C)CN2CCCCC2)C(C)(C)CN2CCCCC2)cc1 | > 200 | 2.09 µM | –
11 | COC(=O)C12C(=O)O[C@H](C)C1(O)C(C)C(=O)N2C (stereo not given in full) | – | – | inactive
12 | c1c2c(cc(-n3nnc4c3CCCCCC4)c1-n1nnc3c1CCCCCC3)CCCCCC2 | > 21.9 | > 21.9 µM | –
13 | Cc1ccc(NP(=O)(Oc2ccccc2)N(CCCl)CCCl)cc1 (stereo not given) | > 35.5 | 15.8 µM | –
14 | Cn1cc(NC(=O)[C@H]2CCC(N)=N2)cc1C(=O)NCCC(=N)N | – | – | inactive
15 | Cc1c(Cc2ccccc2)n(C(C)OCCN(O)C(N)=O)c(=O)[nH]c1=O (stereo not given) | > 200 | > 200 µM | –
16 | COc1ccc2[nH]c3cc4c(=O)c5cc(OC)ccc5[nH]c4cc3c(=O)c2c1 | > 72.4 | > 72.4 µM | –
17 | Nc1ccc(N=Nc2ccc(-c3ccc(N=Nc4c(S(=O)(=O)O)cc5cc(S(=O)(=O)O)c(N=Nc6cccc([N+](=O)[O-])c6)c(N)c5c4O)cc3)cc2)c2cc(S(=O)(=O)O)ccc12 | – | – | active
18 | NC1=NN(c2ccc(Br)cc2)C2C=CC=CN12 (stereo not given) | > 200 | 151 µM | –
19 | CC1CCN(CCCCCNC(=O)C(c2ccccc2)C2CCCCC2)CC(C)(C)C1 (stereo not given) | > 100 | 41.7 µM | –
20 | CC(C)(C)OC(=O)NC1CCCC1=O (stereo not given) | – | – | inactive
21 | CCOC(=O)CCC(NC(=O)C(CC(=O)OC)NC(=O)C(CC(=O)OC)NC(=O)C(CC(=O)OC)NC(=O)C(CC(=O)OC)NC(=O)OCc1ccccc1)C(=O)NC(CCC(=O)OCC)C(=O)NC(CCC(=O)OCC)C(=O)OCC (stereo not given) (Cbz-D(OMe)D(OMe)D(OMe)D(OMe)E(OEt)E(OEt)E(OEt)-OEt; configuration not given here) | > 50.1 | > 50.1 µM | –
22 | O=C(Cc1ccccc1)N[C@@H]1COC(=O)[C@@H]2CCCN2C(=O)[C@@H]2CCCN2C1=O (HELM PEPTIDE1{[O=C(Cc1ccccc1)[*:2]].[O=C([C@@H](CO[*:3])N[*:1])[*:2]].P.P}$PEPTIDE1,PEPTIDE1,2:R3-4:R2$$$V2.0) | > 200 | > 200 µM | –
23 | Clc1nc(NC23CC4CC(CC(C4)C2)C3)nc(NC23CC4CC(CC(C4)C2)C3)n1 | > 200 | 52.5 µM | –
24 | COc1cc(/C=C2/Cc3ccccc3C2=O)ccc1O | > 107 | 55 µM | –
25 | C/C(=C\Cc1ccc(F)cc1)CCCCCC/C(C)=C/Cc1ccc(F)cc1 | > 200 | 22.4 µM | –
26 | Cc1c(C(=O)CSc2nc3ccccc3c(=O)n2-c2ccccc2)c(=O)n(-c2ccccc2)n1C | > 5.62 | > 5.62 µM | –
27 | COCC1OC2(CCC[C@@H]2O)O[C@H]1COC (stereo not given in full) | – | – | inactive
28 | CC1=C2C3=C(C)C(=O)C(C)(C)CC[C@@]3(C)[C@]2(C)CCC(C)(C)C1=O | > 75.9 | > 75.9 µM | –
29 | CCOC(=O)c1c(-c2cc(OC)c(OC)c(OC)c2)csc1NC(=O)c1ccccc1 | > 200 | 12.6 µM | –
